Patent US5817669A, “Compounds, processes for the preparation thereof and anti-tumor agents” (Dainippon Pharmaceutical Co., Ltd., priority 1994, dated 1998)
Where two headings read alike, the source gives them in different places.

Key:
[1] = tested on: HMV2 human melanoma; assay: In vitro anti-tumor activity against HMV-2 human melanoma (MTT); assay type: cell-based; settings: HMV-2, 72 h, MTT, read-out: IC50
Summary of the method: (§1)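 Test compound was applied for 72 h to 500–2,000 seeded cells per well, following a 20 h attachment at 37° C under 5% CO2. Viability was read by MTT, 4 h with 5 mg/ml reagent and formazan taken up in DMSO.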

[2] = tested on: murine P388 lymphocytic leukemia cells; assay: Increases in life span of mice implanted with murine P388 lymphocytic leukemia cells; assay type: in vivo, SLC: BDF1 mice; settings: Mus musculus, P388, ip, 720 h, ip
[3] = Solubility; settings: water
[4] = tested on: WiDr human colorectal cancer; assay: In vitro anti-tumor activity against WiDr human colorectal cancer (MTT); assay type: cell-based; settings: 72 h, MTT, read-out: IC50
Summary of the method: as §1

[5] = tested on: MKN45 human stomach cancer; assay: In vitro anti-tumor activity against MKN45 human stomach cancer (MTT); assay type: cell-based; settings: MKN-45, MKN45, 72 h, MTT, read-out: IC50
Summary of the method: as §1

[6] = tested on: AZ521 human stomach cancer; assay: In vitro anti-tumor activity against AZ-521 human stomach cancer (MTT); assay type: cell-based; settings: AZ-521, 72 h, MTT, read-out: IC50
Summary of the method: as §1

[7] = tested on: C33A human cervix cancer; assay: In vitro anti-tumor activity against C-33A human cervix cancer (MTT); assay type: cell-based; settings: C-33A, 72 h, MTT, read-out: IC50
Summary of the method: as §1

[8] = tested on: murine P388 lymphocytic leukemia cells; assay: In vitro anti-tumor activity against murine P388 lymphocytic leukemia cells (MTT, 72 h); assay type: cell-based; settings: Mus musculus; murine P388 cells, 72 h, MTT; read-out: IC50 (50% proliferation inhibitory concentration)
Summary of the method: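 MTT assay, 72 h exposure; formazan dissolved in DMSO after centrifugation and supernatant removal. Absorbance read at 570 nm with 690 nm reference. IC50 (μg/ml) by least squares.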

[9] = tested on: KB human nasopharynx cancer; assay: In vitro anti-tumor activity against KB human nasopharynx cancer (MTT); assay type: cell-based; settings: KB, 72 h, MTT, read-out: IC50
Summary of the method: as §1

[10] = Acute toxicity; settings: mouse, in vivo, mice, 14th day
Method: Solutions of test compounds in predetermined concentrations were administered (0.1 ml/10 g body weight) to female BALB/c CrSlc mice (5 to 10 animals per one group, 10 weeks old) respectively, and, thus, LD50 values were calculated from the mortalities of the mice on the 14th day after the administration.

[11] = tested on: colon 26 murine tumor cells; assay: Tumor growth inhibition effect on colon 26 murine tumor cells implanted mice; assay type: in vivo, SLC: CDF1 mice; settings: Mus musculus, Colon 26, 504 h; ip, 3.13 mg/kg once a day, days 1-9; day 21 or 22; read-out: Tumor growth inhibition rate IR (%)
Summary of the method: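 CDF1 female mice (7–9 weeks, 7 per group) implanted intracutaneously in the abdomen with 2% brei of colon 26 cells. Compound given ip once daily from day 1 to day 9. Tumor weight estimated from diameters on day 21 or 22; IR % = [1 − (treated MTW/control MTW)] × 100.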

[12] = tested on: A427 human lung cancer; assay: In vitro anti-tumor activity against A-427 human lung cancer (MTT); assay type: cell-based; settings: A-427, 72 h, MTT, read-out: IC50
Summary of the method: as §1

[13] = tested on: tumor; settings: Cancer Research 52, 2818 (1992); cited from earlier work
[14] = NCI criterion, read-out: Evaluation
[15] = days 1 and 5, in solution, read-out: ILS (%) (in solution)
[16] = days 1 and 5, in suspension, read-out: ILS (%) (in suspension)

`Cl.NC1CCN(c2ccc3c(=O)c(C(=O)O)cn(-c4nccs4)c3n2)C1` (stereo not shown) [Compound 3, 7-(3-amino-1-pyrrolidinyl)-1,4-dihydro-4-oxo-1-(2-thiazolyl)-1,8-naphthyridine-3-carboxylic acid hydrochloride] showed an IC50 [1] of 0.21 µg/mL, an ILS at 1.56 mg/kg [2, 14] of 20 to 74% and an ILS at 3.13 mg/kg [2, 14] of over 75%. For the same molecule, the ILS at 6.25 mg/kg [2, 14] was over 75%, the ILS at 12.5 mg/kg [2, 14] was over 75% and the ILS at 25 mg/kg [2, 14] was over 75%. The ILS at 1.56 mg/kg [2, 15] was 63%, the ILS at 3.13 mg/kg [2, 15] was 75% and the ILS at 3.13 mg/kg [2, 16] was 88%. The ILS at 6.25 mg/kg [2, 15] was 113%, the ILS at 12.5 mg/kg [2, 15] was 188% and the ILS at 12.5 mg/kg [2, 16] was 175%. The ILS at 25 mg/kg [2, 15] was over 275%, the solubility [3] was 8300 µg/mL and the IC50 [4] was 1.08 µg/mL. It also gave an IC50 [5] of 0.364 µg/mL, an IC50 [6] of 0.181 µg/mL and an IC50 [7] of 0.184 µg/mL. The IC50 [8] was 0.0103 µg/mL, the IC50 [9] was 0.153 µg/mL and the LD50 at 336 h ([10]; Intraperitoneal administration (ip)) was 55.2 mg/kg. For the same molecule, the LD50 at 336 h ([10]; Intravenous administration (iv)) was 119 mg/kg, the inhibition in vivo at 3.13 mg/kg [11] was 77% and the IC50 [12] was 0.0588 µg/mL.
In the case of `NCC1CCN(c2c(F)cc3c(=O)c(C(=O)O)cn(C4CC4)c3c2F)C1` (stereo not shown) [Compound G], the “anti-tumor activity, in words” value [13] is given as “has anti-tumor activity”.
